Results as given in patent publication US11084781B2, “Diarylureas as CB1 allosteric modulators” (Research Triangle Institute, priority 2017, dated 2021).

Biological target: T1, human CB1 receptor (Homo sapiens, UniProt P21554)
T1 construct: host or cells: CHO-RD-HGA16 cells (CHO cells overexpressing promiscuous Galpha16)
Assay: CB1 calcium mobilization assay (antagonist mode, against EC80 of CP55,940)
Assay type: cell-based
Details: not given

T1 sequence (P21554 whole entry): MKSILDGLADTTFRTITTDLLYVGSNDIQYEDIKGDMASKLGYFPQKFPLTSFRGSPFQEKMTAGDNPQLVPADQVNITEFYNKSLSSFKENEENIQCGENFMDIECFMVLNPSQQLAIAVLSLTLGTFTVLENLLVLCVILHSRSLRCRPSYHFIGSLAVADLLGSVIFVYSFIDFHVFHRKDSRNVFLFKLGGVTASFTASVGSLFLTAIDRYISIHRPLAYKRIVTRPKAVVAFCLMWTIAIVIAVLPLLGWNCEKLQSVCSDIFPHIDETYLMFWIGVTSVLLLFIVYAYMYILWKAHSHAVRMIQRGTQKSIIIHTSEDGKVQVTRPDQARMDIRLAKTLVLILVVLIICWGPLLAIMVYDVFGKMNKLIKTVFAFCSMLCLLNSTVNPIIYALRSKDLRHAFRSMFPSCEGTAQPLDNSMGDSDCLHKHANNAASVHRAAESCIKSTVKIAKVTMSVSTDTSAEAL

Row | SMILES | IC50 [nM]
1 | O=C(Nc1ccc(Cl)cc1)Nc1cccc(N2C3CCC2CC3)c1 [Compound 82, 3-(4-Chlorophenyl)-1-{3-[(1S,4S)-7-azabicyclo[2.2.1]heptan-7-yl]phenyl}urea] | 2700

Same assay, conditions: Table 1; against EC80 (100 nM) of CP55,940; mean ± S.E.M.; read-out: CB1 calcium assay IC50

Row | IC50 [nM] | SMILES
2 | 277 ± 36 | O=C(Nc1ccc(Cl)cc1)Nc1cccc(OC2CCCC2)c1 [Compound 95, 3-(4-Chlorophenyl)-1-[3-(cyclopentyloxy)phenyl]urea]
3 | 42 ± 6 | Cc1ccc(-c2cccc(NC(=O)Nc3ccc(Cl)cc3)c2)s1 [Compound 50, 3-(4-Chlorophenyl)-1-[3-(5-methylthiophen-2-yl)phenyl]urea]
4 | 460 ± 39 | CC(C)(C)c1cc(-c2cccc(NC(=O)Nc3ccc(Cl)cc3)c2)cc(C(C)(C)C)c1 [Compound 37, 3-(4-Chlorophenyl)-1-[3-(3,5-di-tert-butylphenyl)phenyl]urea]
5 | 134 ± 13 | O=C(Nc1ccc(Cl)cc1)Nc1cccc(-c2ccc3occc3c2)c1 [Compound 41, 1-[3-(1-Benzofuran-5-yl)phenyl]-3-(4-chlorophenyl)urea]
6 | 133 ± 6 | COc1cc(-c2cccc(NC(=O)Nc3ccc(Cl)cc3)c2)ccn1 [Compound 17, 3-(4-Chlorophenyl)-1-[3-(2-methoxypyridin-4-yl)phenyl]urea]
7 | 94 ± 9 | O=C(Nc1ccc(Cl)cc1)Nc1cccc(-c2cncs2)c1 [Compound 51, 3-(4-Chlorophenyl)-1-[3-(1,3-thiazol-5-yl)phenyl]urea]
8 | 67 ± 6 | O=C(Nc1ccc(Cl)cc1)Nc1cccc(-c2cccs2)c1 [Compound 48, 3-(4-Chlorophenyl)-1-[3-(thiophen-2-yl)phenyl]urea]
9 | 92 ± 9 | O=C(Nc1ccc(Cl)cc1)Nc1cccc(N2CCC(F)(F)CC2)c1 [Compound 81, 3-(4-Chlorophenyl)-1-[3-(4,4-difluoropiperidin-1-yl)phenyl]urea]
10 | 840 ± 130 | O=C(Nc1ccc(Cl)cc1)Nc1cccc(-c2cccc(O)c2)c1 [Compound 24, 3-(4-Chlorophenyl)-1-[3-(3-hydroxyphenyl)phenyl]urea]
11 | 113 ± 19 | CN(C)c1cccc(NC(=O)Nc2ccc(Cl)cc2)c1 [Compound 85, 1-(4-Chlorophenyl)-3-[3-(dimethylamino)phenyl]urea]
12 | 18 ± 1 | O=C(Nc1ccc(Cl)cc1)Nc1cccc(-c2ccc(F)cc2F)c1 [Compound 35, 3-(4-Chlorophenyl)-1-[3-(2,4-difluorophenyl)phenyl]urea]
13 | 297 ± 37 | CCN(CC)c1cccc(NC(=O)Nc2ccc(Cl)cc2)c1 [Compound 86, 3-(4-Chlorophenyl)-1-[3-(diethylamino)phenyl]urea]
14 | 190 ± 45 | Cc1ccccc1-c1cccc(NC(=O)Nc2ccc(Cl)cc2)c1 [Compound 28, 3-(4-Chlorophenyl)-1-[3-(2-methylphenyl)phenyl]urea]
15 | 591 ± 48 | CC(C)(C)c1ccc(-c2cccc(NC(=O)Nc3ccc(Cl)cc3)c2)cc1 [Compound 36, 3-(4-Chlorophenyl)-1-[3-(4-tert-butylphenyl)phenyl]urea]
16 | 2880 | CN1CCN(c2cccc(NC(=O)Nc3ccc(Cl)cc3)c2)CC1 [Compound 79, 1-(4-Chlorophenyl)-3-[3-(4-methylpiperazin-1-yl)phenyl]urea]

Row | SMILES | IC50 [nM]
17 | O=C(Nc1ccc(Cl)cc1)Nc1cccc(-c2c(Cl)cccc2Cl)c1 [Compound 33, 3-(4-Chlorophenyl)-1-[3-(2,6-dichlorophenyl)phenyl]urea] | 338 ± 19
18 | O=C(Nc1ccc(Cl)cc1)Nc1cccc(-c2cccc([N+](=O)[O-])c2)c1 [Compound 29, 3-(4-Chlorophenyl)-1-[3-(3-nitrophenyl)phenyl]urea] | 27 ± 2
19 | O=C(Nc1ccc(Cl)cc1)Nc1cccc(N2CCCC2)c1 [Compound 78, 1-(4-Chlorophenyl)-3-[3-(pyrrolidin-1-yl)phenyl]urea] | 40 ± 4

Biological target: T2, CB1 receptor (Mus musculus, UniProt P47746)
T2 construct: from tissue; host or cells: cerebellar membranes of adult male CD-1 mice
T2 sequence (P47746 whole entry): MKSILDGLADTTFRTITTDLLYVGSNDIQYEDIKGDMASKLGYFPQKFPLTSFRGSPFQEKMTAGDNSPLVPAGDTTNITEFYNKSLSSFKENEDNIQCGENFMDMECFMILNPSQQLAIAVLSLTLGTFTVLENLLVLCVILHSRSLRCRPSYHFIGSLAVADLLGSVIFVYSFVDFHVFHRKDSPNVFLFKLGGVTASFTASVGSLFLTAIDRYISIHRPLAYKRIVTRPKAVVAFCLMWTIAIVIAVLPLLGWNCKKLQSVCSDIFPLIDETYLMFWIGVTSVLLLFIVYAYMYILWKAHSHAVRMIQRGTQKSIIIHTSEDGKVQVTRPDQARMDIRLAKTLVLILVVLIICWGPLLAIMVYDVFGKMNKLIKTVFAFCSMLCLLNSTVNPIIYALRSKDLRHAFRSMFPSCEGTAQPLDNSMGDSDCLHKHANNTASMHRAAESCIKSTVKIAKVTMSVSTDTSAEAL
Assay: [35S]GTP-γ-S binding assay in mouse cerebellar membranes, CP55,940-stimulated
Assay type: biochemical
Details: CP55,940 (100 nM) stimulation, mean (95% confidence interval)

Row | IC50 [nM] | SMILES
20 | 372 | Cc1ccc(-c2cccc(NC(=O)Nc3ccc(Cl)cc3)c2)s1 [Compound 50, 3-(4-Chlorophenyl)-1-[3-(5-methylthiophen-2-yl)phenyl]urea]
21 | 265 | O=C(Nc1ccc(Cl)cc1)Nc1cccc(-c2ccc3occc3c2)c1 [Compound 41, 1-[3-(1-Benzofuran-5-yl)phenyl]-3-(4-chlorophenyl)urea]
22 | 1320 | COc1cc(-c2cccc(NC(=O)Nc3ccc(Cl)cc3)c2)ccn1 [Compound 17, 3-(4-Chlorophenyl)-1-[3-(2-methoxypyridin-4-yl)phenyl]urea]
23 | 331 | O=C(Nc1ccc(Cl)cc1)Nc1cccc(-c2cncs2)c1 [Compound 51, 3-(4-Chlorophenyl)-1-[3-(1,3-thiazol-5-yl)phenyl]urea]
24 | 573 | O=C(Nc1ccc(Cl)cc1)Nc1cccc(-c2cccs2)c1 [Compound 48, 3-(4-Chlorophenyl)-1-[3-(thiophen-2-yl)phenyl]urea]
25 | 353 | O=C(Nc1ccc(Cl)cc1)Nc1cccc(-c2ccc(F)cc2F)c1 [Compound 35, 3-(4-Chlorophenyl)-1-[3-(2,4-difluorophenyl)phenyl]urea]

Row | SMILES | IC50 [nM]
26 | O=C(Nc1ccc(Cl)cc1)Nc1cccc(-c2cccc([N+](=O)[O-])c2)c1 [Compound 29, 3-(4-Chlorophenyl)-1-[3-(3-nitrophenyl)phenyl]urea] | 452

Biological target: T1, human CB1 receptor
Assay: CB1 calcium mobilization assay, agonist screen
Assay type: cell-based
Details: Table 1; 10,000 nM final concentration; mean ± SD

Row | CB1 calcium assay Agonist screen (% CP55, 940 Emax) | SMILES
27 | 11.7 ± 1.4 % CP55, 940 Emax | O=C(Nc1ccc(Cl)cc1)Nc1cccc(OC2CCCC2)c1 [Compound 95, 3-(4-Chlorophenyl)-1-[3-(cyclopentyloxy)phenyl]urea]
28 | 4.6 ± 1.4 % CP55, 940 Emax | Cc1ccc(-c2cccc(NC(=O)Nc3ccc(Cl)cc3)c2)s1 [Compound 50, 3-(4-Chlorophenyl)-1-[3-(5-methylthiophen-2-yl)phenyl]urea]
29 | 10.4 ± 2.1 % CP55, 940 Emax | CC(C)(C)c1cc(-c2cccc(NC(=O)Nc3ccc(Cl)cc3)c2)cc(C(C)(C)C)c1 [Compound 37, 3-(4-Chlorophenyl)-1-[3-(3,5-di-tert-butylphenyl)phenyl]urea]
30 | 0.2 ± 1.0 % CP55, 940 Emax | O=C(Nc1ccc(Cl)cc1)Nc1cccc(-c2ccc3occc3c2)c1 [Compound 41, 1-[3-(1-Benzofuran-5-yl)phenyl]-3-(4-chlorophenyl)urea]
31 | 23.4 ± 1.9 % CP55, 940 Emax | COc1cc(-c2cccc(NC(=O)Nc3ccc(Cl)cc3)c2)ccn1 [Compound 17, 3-(4-Chlorophenyl)-1-[3-(2-methoxypyridin-4-yl)phenyl]urea]
32 | 8.1 ± 3.1 % CP55, 940 Emax | O=C(Nc1ccc(Cl)cc1)Nc1cccc(-c2cncs2)c1 [Compound 51, 3-(4-Chlorophenyl)-1-[3-(1,3-thiazol-5-yl)phenyl]urea]
33 | 12.8 ± 1.8 % CP55, 940 Emax | O=C(Nc1ccc(Cl)cc1)Nc1cccc(-c2cccs2)c1 [Compound 48, 3-(4-Chlorophenyl)-1-[3-(thiophen-2-yl)phenyl]urea]
34 | 14.0 ± 0.6 % CP55, 940 Emax | O=C(Nc1ccc(Cl)cc1)Nc1cccc(N2CCC(F)(F)CC2)c1 [Compound 81, 3-(4-Chlorophenyl)-1-[3-(4,4-difluoropiperidin-1-yl)phenyl]urea]
35 | 9.8 ± 1.6 % CP55, 940 Emax | O=C(Nc1ccc(Cl)cc1)Nc1cccc(-c2cccc(O)c2)c1 [Compound 24, 3-(4-Chlorophenyl)-1-[3-(3-hydroxyphenyl)phenyl]urea]
36 | 14.5 ± 4.9 % CP55, 940 Emax | CN(C)c1cccc(NC(=O)Nc2ccc(Cl)cc2)c1 [Compound 85, 1-(4-Chlorophenyl)-3-[3-(dimethylamino)phenyl]urea]
37 | 20.9 ± 0.2 % CP55, 940 Emax | CCN(CC)c1cccc(NC(=O)Nc2ccc(Cl)cc2)c1 [Compound 86, 3-(4-Chlorophenyl)-1-[3-(diethylamino)phenyl]urea]
38 | 4.4 ± 2.7 % CP55, 940 Emax | Cc1ccccc1-c1cccc(NC(=O)Nc2ccc(Cl)cc2)c1 [Compound 28, 3-(4-Chlorophenyl)-1-[3-(2-methylphenyl)phenyl]urea]
39 | 4.0 ± 1.0 % CP55, 940 Emax | CC(C)(C)c1ccc(-c2cccc(NC(=O)Nc3ccc(Cl)cc3)c2)cc1 [Compound 36, 3-(4-Chlorophenyl)-1-[3-(4-tert-butylphenyl)phenyl]urea]
40 | 27.6 ± 2.0 % CP55, 940 Emax | CN1CCN(c2cccc(NC(=O)Nc3ccc(Cl)cc3)c2)CC1 [Compound 79, 1-(4-Chlorophenyl)-3-[3-(4-methylpiperazin-1-yl)phenyl]urea]

Row | SMILES | CB1 calcium assay Agonist screen (% CP55, 940 Emax)
41 | O=C(Nc1ccc(Cl)cc1)Nc1cccc(-c2c(Cl)cccc2Cl)c1 [Compound 33, 3-(4-Chlorophenyl)-1-[3-(2,6-dichlorophenyl)phenyl]urea] | 17.2 ± 3.1 % CP55, 940 Emax
42 | O=C(Nc1ccc(Cl)cc1)Nc1cccc(N2CCCC2)c1 [Compound 78, 1-(4-Chlorophenyl)-3-[3-(pyrrolidin-1-yl)phenyl]urea] | 0.6 ± 0.5 % CP55, 940 Emax
43 | O=C(Nc1ccc(Cl)cc1)Nc1cccc(N2C3CCC2CC3)c1 [Compound 82, 3-(4-Chlorophenyl)-1-{3-[(1S,4S)-7-azabicyclo[2.2.1]heptan-7-yl]phenyl}urea] | 5.5 ± 1.3 % CP55, 940 Emax
